Measured values reported in publication PMC6393897, “An LC-MS/MS Method for Simultaneous Determination of the Toxic and Active Components of Cortex Periplocae in Rat Plasma and Application to a Pharmacokinetic Study” (International Journal of Analytical Chemistry, 2019).
Read-outs that look alike come from different tables or passages of the source.

Key:
[1] = Pharmacokinetic study in rats after oral administration of cortex periplocae extract (plasma LC-MS/MS); type: in vivo, rat; conditions: oral cortex periplocae extract 18.9 g/kg; for AUC: 0-48 h, read-out: AUC(0-tn); for MRT: read-out: MRT(0-tn)
Procedure: The pharmacokinetic study was conducted in accordance with the Guidelines for the Care and Use of Laboratory Animals and approved by the Animal Ethics Committee of Tianjin University of Traditional Chinese Medicine. […] Appropriate amount of cortex periplocae extract was suspended in 0.5% carboxymethyl cellulose sodium salt aqueous solution (CMC-Na) and the volume of oral administration was 1 mL/100g. […] The rats were anesthetized with ethyl ether before each withdrawal. […] For this repeat bleeds at short intervals, fluid replacement (appropriate volume of physiological saline) was required. The blood samples were immediately centrifuged 10 min at 7000 rpm. The obtained plasma was transferred into another centrifuge tube and stored at -80°C for analysis.
For the maximum drug concentration in plasma (Cmax) and the time to reach maximum drug concentration (Tmax), the values could be directly obtained. The other key parameters such as the area under the plasma concentration–time curve (AUC), elimination half-life (t1/2), and mean residence time (MRT) were calculated with DAS (Drug and Statistics 1.0, Medical College of Wannan, China) using non-compartmental model.

[2] = Stability of analytes in rat plasma QC samples (autosampler, room temperature, freeze/thaw, -80°C); type: in vitro ADME; conditions: for Freeze thaw cycles stability, Accuracy: three freeze (-80°C)/thaw cycles
Procedure: (§1) The QC samples (n = 6) at three concentrations (low, medium, and high) were also used to assess the stabilities of all analytes. The QC samples under autosampler condition for 24 h were determined to evaluate the autosampler 24 h stability. For the freeze/thaw cycle stability, the QC samples stored at -80°C were subjected to three freeze to thaw (at room temperature) cycles. QC samples stored at room temperature for 24 h and -80°C for 1 month were used to evaluate the short-term stability and the long-term stability. The mixed analytes solution (100 ng/mL), which was obtained by diluting the stock solution stored for two weeks at 4°C, was used to evaluate the stability of stock solution. The stability of analytes working solution was also assessed by storing solutions 2 weeks at 4°C. The stabilities of stock and working solutions of ISs were determined by the same procedure as that for the analytes.

[3] = Stability of stock and working solutions stored 2 weeks at 4°C; type: physicochemical
Procedure: as §1, with “The QC samples under autosampler condition for 24 h were determined to evaluate the autosampler 24 h stability.” left out, “QC samples stored at room temperature for 24 h and -80°C for 1 month were used to evaluate the short-term stability and the long-term stability.” left out

[4] = n = 6, high level (1200 ng/mL isovanillin, periplocin; 240 ng/mL others)
[5] = n = 6, low level (7.2 ng/mL isovanillin, periplocin; 1.44 ng/mL others)
[6] = n = 6, medium level (120 ng/mL isovanillin, periplocin; 24 ng/mL others)
[7] = 2 weeks at 4°C, high level (1200 ng/mL isovanillin, periplocin; 240 ng/mL scopoletin, periplogenin, periplocymarin)
[8] = 2 weeks at 4°C, low level (7.2 ng/mL isovanillin, periplocin; 1.44 ng/mL scopoletin, periplogenin, periplocymarin)
[9] = 2 weeks at 4°C, medium level (120 ng/mL isovanillin, periplocin; 24 ng/mL scopoletin, periplogenin, periplocymarin)
[10] = male Sprague-Dawley rats, plasma, n = 6, mean ± SD
[11] = male, Sprague-Dawley, rat, in vivo, po, 18.9 g/kg, male Sprague-Dawley rats, plasma, n = 6, mean ± SD
[12] = rat, in vivo, male Sprague-Dawley rats, plasma, n = 6, mean ± SD
[13] = rat, in vivo, male Sprague-Dawley rats, plasma, n = 6, mean ± SD, read-out: Cmax
[14] = rat, male Sprague-Dawley rats, plasma, n = 6, mean ± SD

| SMILES | -80°C for 1 month stability, Accuracy [2, 4] [%] | Autosampler for 24 hours stability, Accuracy [2, 4] [%] | Room temperature for 24 h stability, Accuracy [2, 4] [%] | -80°C for 1 month stability, Accuracy [2, 5] [%] | Autosampler for 24 hours stability, Accuracy [2, 5] [%] | Room temperature for 24 h stability, Accuracy [2, 5] [%] | -80°C for 1 month stability, Accuracy [2, 6] [%] | Autosampler for 24 hours stability, Accuracy [2, 6] [%] | Room temperature for 24 h stability, Accuracy [2, 6] [%] | Freeze thaw cycles stability, Accuracy [2, 4] [%] | Freeze thaw cycles stability, Accuracy [2, 5] [%] | Freeze thaw cycles stability, Accuracy [2, 6] [%] | Working solution stability, Accuracy [3, 7] [%] | Working solution stability, Accuracy [3, 8] [%] | Working solution stability, Accuracy [3, 9] [%] | AUC [1, 12] [ng·h/mL] | also measured |
| --- | --- | --- | --- | --- | --- | --- | --- | --- | --- | --- | --- | --- | --- | --- | --- | --- | --- |
| COc1ccc(C=O)cc1O [isovanillin] | 99.4 | 114 | 103 | 109 | 100 | 107 | 100 | 112 | 106 | 107 | 101 | 98.6 | 85.0 | 104 | 96.1 |  | Detection in rat plasma after oral administration ([1]; LLOQ 2.4 ng/mL): not detected |
| COC1CC(OC2CCC3(C)C4CCC5(C)C(C6=CC(=O)OC6)CCC5(O)C4CCC3(O)C2)OC(C)C1OC1OC(CO)C(O)C(O)C1O (stereo not shown) [periplocin] | 92.9 | 113 | 96.4 | 115 | 113 | 111 | 115 | 109 | 116 | 113 | 93.7 | 114 | 94.4 | 103 | 98.9 | 83 ± 58.6 | t1/2 [1, 10]: 1.08 ± 0.98 h; half-life [1, 11]: 1.21 ± 1.11 h; AUC(0-inf) [1, 12]: 105 ± 70.9 ng·h/mL; Tmax [1, 12]: 0.31 ± 0.16 h; Cmax [1, 13]: 91.4 ± 53 ng/mL; MRT [1, 12]: 1.21 ± 1.11 h |
| CO[C@H]1C[C@H](O[C@H]2CC[C@]3(C)[C@H]4CC[C@]5(C)[C@@H](C6=CC(=O)OC6)CC[C@]5(O)[C@@H]4CC[C@]3(O)C2)O[C@H](C)[C@H]1O [periplocymarin] | 102 | 102 | 98.5 | 106 | 101 | 107 | 102 | 108 | 102 | 103 | 113 | 113 | 84.2 | 110 | 95.1 | 1690 ± 1170 | half-life [1, 11]: 30.2 ± 11.8 h; Cmax ratio periplocymarin versus periplogenin ([1]; rat plasma): 9 times; AUC(0-inf) [1, 12]: 2260 ± 1280 ng·h/mL; Tmax [1, 12]: 5.49 ± 4.34 h; Cmax [1, 13]: 126 ± 96.4 ng/mL; MRT [1, 12]: 17.1 ± 2.48 h |
| C[C@]12CC[C@H](O)C[C@@]1(O)CC[C@@H]1[C@@H]2CC[C@]2(C)[C@@H](C3=CC(=O)OC3)CC[C@]12O [periplogenin] | 98.7 | 104 | 101 | 109 | 108 | 92.6 | 108 | 110 | 115 | 92.8 | 116 | 112 | 81.5 | 111 | 99.4 |  |  |
| O=Cc1ccc(O)c(O)c1 [protocatechuic aldehyde, reference compound] |  |  |  |  |  |  |  |  |  |  |  |  |  |  |  |  | Working solution stability of ISs, accuracy ([3]; IS working solutions, 2 weeks at 4°C): 101% |
| COc1cc2ccc(=O)oc2cc1O [scopoletin] |  |  | 103 |  |  |  |  |  |  |  |  |  |  |  |  | 103 ± 76.4 | Cmax [1, 10]: 177.8 ± 133.85 ng/mL; Cmax ([1]; male, Sprague-Dawley, rat, plasma, po, 18.9 g/kg, male Sprague-Dawley rats, plasma, n = 6, mean ± SD, read-out: Cmax): 178 ± 134 ng/mL; AUC(0-inf) [1, 14]: 206 ± 153 ng·h/mL; Tmax [1, 14]: 0.1 ± 0.03 h; half-life [1, 14]: 0.19 ± 0.08 h; MRT [1, 14]: 11.8 ± 6.6 h |
| CC(=O)CC(c1ccccc1)c1c(O)c2ccccc2oc1=O (stereo not shown) [warfarin, reference compound] |  |  |  |  |  |  |  |  |  |  |  |  |  |  |  |  | Working solution stability of ISs, accuracy ([3]; 2 weeks): 109% |
